Values quoted from earlier work, collected in US12377095B2, “Use of ligustrazine nitrone derivatives in treatment and prevention of diabetic complication diseases” (QINGDAO HAILAN PHARMACEUTICALS CO., LTD., priority 2019, dated 2025).
Read-outs that look alike come from different tables or passages of the source.

Experiments:
[1] = system: rats with diabetic nephropathy; details: rats with diabetic nephropathy induced by streptozotocin; cited from earlier work
[2] = system: human renal proximal tubule cells; details: cited from earlier work
[3] = system: patients with diabetic nephropathy; details: cited from earlier work
[4] = system: patients with type 2 diabetes with peripheral neuropathy; details: cited from earlier work
[5] = rabbit, intraperitoneal injection of tetramethylpyrazine hydrochloride; cited from earlier work
[6] = system: patients with diabetic retinopathy; details: electronically controlled tetramethylpyrazine ion added to puerarin injection and Zishen Jianpi Huayu Recipe; control group 67.50%; cited from earlier work
[7] = combined application vs conventional treatment group

## Cc1nc(C)c(C)nc1C [tetramethylpyrazine, Tetramethylpyrazine]
[1]
  blood glucose: down-regulate
  renal function: significantly improve
  urine protein exclusion: down-regulate
[2]
  activity against sodium arsenite-induced damage: protective activity
[3]; [7]
  24 h total urine proteins: reduce
  24 h urinary albumin excretion rate: reduce
  24 h urine protein quantitation: reduce
  effect on reduction of blood urea nitrogen: not significant
  effect on reduction of diastolic blood pressure: not significant
  effect on reduction of systolic blood pressure: not significant
[3]; tetramethylpyrazine injection, patients with diabetic nephropathy
  adverse reaction during the use: no indication of serious adverse reaction
[4]; conventional dose injection 80 mg/d
  total effective rate of treatment: 82.93%
[4]; injection 360-400 mg/d, intravenous drops, 12 d course
  total effective rate of treatment: 95%
[5]
  entry into retinal tissue: can enter the retinal tissue through the blood-retinal barrier
[6]
  total effective rate: 86.84%
